This is an account of results in PMC11077815, “Synthesis and antitumor activity of dolutegravir derivatives bearing 1,2,3-triazole moieties” (BMC Chemistry, 2024).

One data set relates to A549. Description: CCK8 cell viability assay, A549. Type of data set: cell-based, Human. Particulars: for IC50: A549, 48 h, CCK8, mean ± SE. Here is the method:
(§1) At first, CCK8 assay was carried out to evaluate the anti-proliferative activity of dolutegravir-1,2,3-triazole derivatives against different cancer cell lines. The results of cell viability of three lung cancer cell lines A549, PC-9 and H460 in the presence of compounds 9 and 10 are summarized in Table 2. Cells were treated with different compounds at the concentration of 20 µM for 48 h. […] Human lung cancer cell lines A549, PC-9 and H460 were all obtained from ATCC. Cells were cultured in DMEM or RPMI 1640 medium containing 10% FBS and 1% penicillin/streptomycin at 37 °C with a 5% CO2-humidified atmosphere. CCK8 assay was used to measure cell viability. Cells with a density of 1 × 10^4 cells/well were seeded on the 96-well plates. After adhesion, cells were treated with different diluted compounds or vehicle control DMSO and continue cultured for 48 h. Then, CCK8 reagent was added for one hour incubation at 37 °C with 5% of CO2. Absorbance was measured using a microplate spectrophotometer (Thermo) at 450 nm. The ratio of cell viability of control was taken as 100%. […] Then IC50 of the compounds were investigated using the prism statistical software.

Another data set concerns PC-9. Description: CCK8 cell viability assay, PC-9. Type of data set: cell-based, Human. Particulars: for IC50: PC9, 48 h, CCK8, mean ± SE. Here is the method: as §1
For orientation: Tetrazolium assays rely on reduction of a dye to a coloured formazan, in cell work by metabolically active cells.

In another data set the test system is H460. Description: CCK8 cell viability assay, H460. Type of data set: cell-based, Human. Particulars: for IC50: H460, 48 h, CCK8, mean ± SE. As to the method: as §1
Details of data set [1]: method as in PMID 35111871. Particulars: preclinical study, dose 27 times greater than the clinical dose; cited from earlier work.
Data set [2] deals with HRM (Human Renal Mesangial) cell line. Briefly: CCK8 cell viability assay, HRM normal cells (toxicity control). Particulars: HRM normal human cells, 48 h, CCK8, mean ± SE. Type of data set: cell-based. As to the method: Based on these preliminary results, compounds 9c, 9e, 9f, 9i, 9k, 9 L, 9p, 9q, 9t, 9u, 9v, 9w, 10c, 10e which were effective to most of the cell lines were chosen for the measurement of the half-maximal inhibitory concentration (IC50). […] HRM (Human Renal Mesangial) cell line was used as a control to study the toxicity of these compounds against normal human cells.
CCK8 assay was used to measure cell viability. Cells with a density of 1 × 10^4 cells/well were seeded on the 96-well plates. After adhesion, cells were treated with different diluted compounds or vehicle control DMSO and continue cultured for 48 h. Then, CCK8 reagent was added for one hour incubation at 37 °C with 5% of CO2. Absorbance was measured using a microplate spectrophotometer (Thermo) at 450 nm. The ratio of cell viability of control was taken as 100%. […] Then IC50 of the compounds were investigated using the prism statistical software.

Setting [3] is: A549, 20 µM, 48 h, CCK8, control = 100%.
Setting [4] is: PC9, 20 µM, 48 h, CCK8, control = 100%.
[5] abbreviates: H460, 20 µM, 48 h, CCK8, control = 100%.

What is called viability is a read-out of living cells in per cent, often relative to untreated cells. In general, IC50 refers to the concentration at which inhibition is half-maximal.

Turning to `C[C@@H]1CCO[C@H]2Cn3cc(C(=O)NCc4ccc(F)cc4F)c(=O)c(O)c3C(=O)N12` [DTG, Dolutegravir], the viability at 20 µM in the data set with A549 (Homo sapiens, A549, 20 µM, 48 h, CCK8, control = 100%) came to 109%; in the data set on PC-9 (Homo sapiens, PC-9, PC9, 20 µM, 48 h, CCK8, control = 100%), 91.7%; in the data set with H460 (Homo sapiens, NCI-H460, H460, 20 µM, 48 h, CCK8, control = 100%), 27.2%. In addition, the “fertility and teratogenic toxicity” value in data set [1] is recorded as “no obvious fertility toxicity or teratogenic toxicity”.
Regarding `CCc1ccccc1-n1cc(-c2cccc(NC(=O)c3cn4c(c(OC)c3=O)C(=O)N3[C@H](C)CCO[C@H]3C4)c2)nn1` [Compound 9k], the “Cell viability (100%)” value in the data set with A549 (setting [3]) came out at 83.48%; in the data set with PC-9 (setting [4]) it was 23.40%; with H460 (setting [5]), 18.72%. Besides, the IC50 with A549 was 20.7 ± 0.23 µM; in the data set on PC-9 it was 9.87 ± 0.19 µM; in the data set with H460, 12.9 ± 0.8 µM; in data set [2] it was above 50 µM.
As for `COc1c2n(cc(C(=O)Nc3cccc(-c4cn(-c5ccccc5C(F)(F)F)nn4)c3)c1=O)C[C@@H]1OCC[C@@H](C)N1C2=O` [Compound 9c], the “Cell viability (100%)” value with A549 (setting [3]) turned out to be 9.48%; in the data set on PC-9 (setting [4]) it was 13.91%; in the data set with H460 (setting [5]) it was 32.97%. In addition, the 50% inhibitory concentration (IC50) in the data set on A549 was 9.06 ± 0.88 µM; in the data set with PC-9, 4.03 ± 0.59 µM; in the data set with H460, 11.4 ± 0.59 µM; in data set [2], above 50 µM.
As to `COc1c2n(cc(C(=O)Nc3cccc(-c4cn(-c5cccc(C)c5)nn4)c3)c1=O)C[C@@H]1OCC[C@@H](C)N1C2=O` [Compound 9f], the figures for the “Cell viability (100%)” value in the data set with A549 (setting [3]), in the data set with PC-9 (setting [4]) and with H460 (setting [5]) were 33.47%, 8.80% and 39.20%, respectively. For the same compound, the IC50 in the data set on A549 is 27.8 ± 0.56 µM; with PC-9 it was 4.67 ± 0.26 µM; in the data set on H460, 19.6 ± 0.32 µM; in data set [2], above 50 µM.
As to `COc1ccccc1-n1cc(-c2cccc(NC(=O)c3cn4c(c(OC)c3=O)C(=O)N3[C@H](C)CCO[C@H]3C4)c2)nn1` [Compound 9t], the “Cell viability (100%)” value worked out at 7.32% with A549 (setting [3]), 4.56% in the data set on PC-9 (setting [4]) and 3.27% with H460 (setting [5]). Moreover, the IC50 in the data set with A549 is 17.3 ± 0.73 µM; in the data set on PC-9, 6.75 ± 1.43 µM; in the data set on H460, 14.2 ± 0.16 µM; in data set [2], above 50 µM.
`COc1c2n(cc(C(=O)Nc3cccc(-c4cn(-c5ccccc5OC(F)(F)F)nn4)c3)c1=O)C[C@@H]1OCC[C@@H](C)N1C2=O` [Compound 9i]: the “Cell viability (100%)” value in the data set on A549 (setting [3]) is listed as 17.41%; in the data set with PC-9 (setting [4]), 18.95%; with H460 (setting [5]), 8.52%. The IC50 with A549 is 11.1 ± 1.07 µM; in the data set with PC-9, 4.53 ± 0.31 µM; with H460, 8.24 ± 2.06 µM; in data set [2], above 50 µM.
Turning to `COc1c2n(cc(C(=O)Nc3cccc(-c4cn(-c5cc(C(F)(F)F)ccc5C(F)(F)F)nn4)c3)c1=O)C[C@@H]1OCC[C@@H](C)N1C2=O` [Compound 9q], the entries for the “Cell viability (100%)” value in the data set on A549 (setting [3]), in the data set with PC-9 (setting [4]) and with H460 (setting [5]) were 54.85%, 18.17% and 17.63%, respectively. Also, the half-inhibitory concentration (IC50) is 13.6 ± 1.79 µM in the data set with A549, 6.78 ± 0.31 µM in the data set with PC-9, 16.5 ± 0.57 µM in the data set on H460 and above 50 µM in data set [2].
Take `COc1c2n(cc(C(=O)Nc3cccc(-c4cn(Cc5cccc(Br)c5)nn4)c3)c1=O)C[C@@H]1OCC[C@@H](C)N1C2=O` [Compound 10e]: the “Cell viability (100%)” value with A549 (setting [3]) is 96.13%; in the data set with PC-9 (setting [4]) it was 49.85%; in the data set on H460 (setting [5]) it was 28.88%. The IC50 is above 50 µM in the data set on A549, 10.1 ± 0.71 µM in the data set with PC-9, 9.44 ± 1.53 µM in the data set with H460 and above 50 µM in data set [2].
